# Laboratory results as given in patent US6868215B2, “Dye thin film, production method thereof, optical switch, optical distributor, optical modulator and optical switch array” (Fuji Xerox Co., Ltd., priority 2002, dated 2005).
# Assay: thermal stability: thermal decomposition temperature by thermogravimetry and differential thermal analysis
# Type: physicochemical
# Method: For the absorption characteristic, absorption spectra were measured by using a near infrared photospectrometer. Further, for the thermal stability, the thermal decomposition temperature was measured by thermogravimetry and differential thermal analysis. Further, the solubility in organic solvents such as chloroform or acetone was confirmed.
smiles,measurement,value
CC(C)CN(CC(C)C)c1cc(O)c2c(c1)OC(=O)/C2=C(/[O-])C1=C2C(O)=CC(=[N+](CC(C)C)CC(C)C)C=C2OC1=O [compound (1)],decomposition temperature,202.7 °C
